Data from PMC11077991, “The small molecule CBR-5884 inhibits the Candida albicans phosphatidylserine synthase” (mBio, 2024).

Legend:
[1] = system: C. albicans strains GDH2346, 3153A, TFPY412 and TFPY2307; experiment: CLSI MIC broth microdilution, additional wild-type strains; type: cell-based, Candida albicans; conditions: RPMI MOPS pH 7.0, 37°C, 48 h
Procedure: Furthermore, there are no current reports on the antifungal effects of LOC14 and CBR-5884. To rule out the possibility that their inhibition is strain-specific, we treated four additional C. albicans wildtype strains—GDH2346 ([54]), 3153A ([55]), and two clinical isolates TFPY412 and TFPY2307—with LOC14 and CBR-5884. Tests were done in RPMI MOPS (pH 7.0) medium at 37°C for 48 h following the CLSI MIC broth microdilution protocol, and a cho1ΔΔ strain was included as a control (Fig. 3E and F).
Minimum inhibitory concentration (MIC) was determined following Clinical & Lab Standards Institute (CLSI) MIC broth microdilution protocol (Licensed to Todd Reynolds, license # Ord-1138682) ([98], [99]). Briefly, stock solutions of different compounds (purchased from MedChemExpress) were prepared at a concentration of 10 mM in DMSO and subsequently diluted as required in the same solvent. Wild-type C. albicans strain SC5314, as well as four additional wild-type strains—GDH2346, 3153A, TFPY412, and TFPY2307, were cultured overnight in YPD medium at 30°C, washed with water three times, and then diluted to a concentration of 2 × 10^3 cells/mL (OD600 = 0.00008) in one of the three media [minimal medium, minimal medium buffered with 50 mM HEPES (pH 7.0) and RPMI MOPS (pH 7.0)]. The cho1ΔΔ strain was also included as a control. […]

[2] = system: wild-type C. albicans cell wall β(1-3)-glucan exposure; experiment: fluorescence imaging of unmasked β(1-3)-glucan; type: cell-based, Candida albicans; conditions: 170 µM, YPD
Procedure: Wild-type and cho1ΔΔ cells were grown in YPD overnight (~16 h), and back diluted to fresh YPD with OD600 of ~0.1. The cells were then shaken at 225 rpm for 3 h before 170 µM CBR-5884 or equivalent DMSO were added. The cells were further shaken for 30, 60, 120 min before staining with anti-β(1-3)-glucan antibody. The cells were stained as previously described ([57], [97]) with the exception that goat anti-mouse antibody conjugated to Alexa Fluor 488 (Jackson ImmunoResearch) was used as the secondary antibody. For imaging, Candida cells were resuspended in 200 µL of Fluoromount-G mounting medium and visualized with a Leica SP8 white light laser confocal microscope. The pictures were taken through Leica Application Suite X office software and quantified as described above.

purified hexameric Cho1 = purified hexameric Cho1 (Candida albicans, UniProt A0A1D8PF32); experiment: kinetic curves of purified hexameric Cho1 (radioactive PS synthase assay); type: biochemical
Chain of purified hexameric Cho1 (A0A1D8PF32 entry or part of it): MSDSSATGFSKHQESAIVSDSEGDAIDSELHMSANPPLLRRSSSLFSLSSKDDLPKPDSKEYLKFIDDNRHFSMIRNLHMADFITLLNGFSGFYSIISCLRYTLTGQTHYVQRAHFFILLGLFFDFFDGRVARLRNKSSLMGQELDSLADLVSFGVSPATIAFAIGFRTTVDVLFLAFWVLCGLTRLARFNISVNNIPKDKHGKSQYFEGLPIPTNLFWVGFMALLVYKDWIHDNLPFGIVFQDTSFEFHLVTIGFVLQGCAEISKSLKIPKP
Procedure: For the kinetic curves, the specific activity was measured in the reaction containing 50 mM Tris-HCl (pH 8.0), 1 mM MnCl2, 0.025%–0.3% Triton X-100 and 0.033%–0.07% digitonin with 0.75–1.5 µg purified Cho1 protein. The concentrations of 18:1 CDP-DAG (Avanti, cat# 870520) and serine are indicated in the graphs, and the mol % of CDP-DAG was kept between 4.2% and 5.0% for the curve where CDP-DAG was varied (Fig. 6C and D) and at 4.8% (200 μM) for the curve where serine was varied (Fig. 6B). The concentrations of CBR-5884 used in each reaction are indicated in the graph, and CBR-5884 was incubated with purified Cho1 protein in the presence of CDP-DAG on ice for at least 2 h before the addition of L-[^3H]-serine. The reaction was stopped at 20, 40, and 60 min, and specific activity was calculated based on the slope of linear PS production, representing the initial velocity.

[3] = precipitation in MIC media; type: physicochemical
[4] = type: physicochemical; conditions: 12 h, 170 µM
Procedure: However, it was observed that the impact of CBR-5884 on cell growth was only temporary, with a delay lasting 12 h. […] To disentangle these two possibilities, experiments were conducted where both CBR-5884 and DMSO were subjected to 12 h of agitation at 30°C before being introduced to live cells. The growth of these cells was monitored over the next 14 h, with an OD600 measurement every 2 h, to assess the persistence of CBR-5884’s efficacy (Fig. 4F); in the meantime, cells that had been grown in 170 µM CBR-5884 for 12 and 24 h were transferred into fresh media containing new CBR-5884, which was allowed to grow for another 14 h, to probe the rising of resistance (Fig. 4G). In both experimental setups, cells grew slowly in the presence of CBR-5884 compound compared to DMSO control.
The growth curves with LOC14 and CBR-5884 treatments were measured from 2 to 30 h with OD600 measurements every 2 h. A final concentration of 170 µM CBR-5884, 430 µM LOC14, and 5 mM serine was added into each group as indicated. To test the stability of CBR-5884, minimal medium supplemented with 170 µM CBR-5884 or equivalent DMSO was agitated for 12 h before the introduction of wildtype C. albicans SC5314 strain, and growth curves were recorded from 0 to 14 h with OD600 measurement every 2 h. […] The growth curves were recorded from 0 to 14 h with OD600 measurement every 2 h. […]

cho1ΔΔ strain = experiment: growth of cho1ΔΔ strain in rich YPD media; type: cell-based, Candida albicans

SMILES	growth inhibition of four additional wild-type strains [1]	β(1-3)-glucan unmasking vs wild-type in DMSO ([2]; 30-min treatment)	β(1-3)-glucan unmasking vs cho1ΔΔ mutant ([2]; 120-min treatment)	Ki (purified hexameric Cho1)	inhibition of Cho1 activity at sub-saturating serine (purified hexameric Cho1; serine 20 mM, CDP-DAG 25-300 µM)	inhibition of Cho1 activity at saturating serine (purified hexameric Cho1; serine 32 mM, CDP-DAG varied)	pattern of inhibition (purified hexameric Cho1; serine varied, CDP-DAG 200 µM)	solubility in MIC media [3]	stability and effectiveness under agitation [4]	growth of the cho1ΔΔ strain (cho1ΔΔ strain)
O=C(C1CC1)N1CCN(Cn2sc3ccccc3c2=O)CC1 [LOC14]	all strains were inhibited	–	–	–	–	–	–	–	–	–
CCOC(=O)c1sc(NC(=O)c2ccco2)c(SC#N)c1C [CBR-5884]	all strains were inhibited	significantly increased unmasking	more unmasking than the cho1ΔΔ mutant	1.55 µM	observed	inhibition was overcome	competitive inhibition	precipitated at high concentrations	at least 12 h	decreases growth
